± gives the expanded uncertainty stated by the source.
Conditions: Liquid

- vapor or sublimation pressure (298.15 K): 0.0202 ± 0.0046 kPa
- vapor or sublimation pressure (303.15 K): 0.0339 ± 0.005 kPa
- vapor or sublimation pressure (308.15 K): 0.0438 ± 0.0054 kPa
- vapor or sublimation pressure (313.15 K): 0.0681 ± 0.0064 kPa
- vapor or sublimation pressure (318.15 K): 0.0924 ± 0.0075 kPa
Structure (SMILES): CC[S+]([O-])CC [diethyl sulfoxide]

Source: the NIST ThermoML archive (doi:10.1021/je034278t)
